Data on two substances can be found in patent US8748105B2, “Method for selecting a candidate drug compound” (Pepscan Systems B.V., priority 2003, dated 2014).

Starred links: 1 amine or outer side, 2 acyl side, 3 side chain; linkers in the order of their positions; H or OH if unused. Positions of bridges follow the written chain, without caps; N, C: chain ends. T2 = dibromobenzene scaffold (1,3-bis(bromomethyl)benzene, m-dibromoxylene) forming thioether links to the two Cys; resin = solid-support resin (cross-linked polystyrene) to which the C-terminal amino acid is attached; mXylylene = c1cc(C[*:1])cc(C[*:2])c1

In one assay the test system is anti-FSH-β mAb 2. The experiment in a line: Loopscan: sandwich ELISA of solid-phase cyclized or linear 12-mer FSH β3-loop peptides. It is filed as binding. As to conditions: solid-phase 12-mer peptides; mAb 2 up to 10 μg/mL. The protocol:
FIG. 12: ELISA results of the binding of anti-FSH monoclonal antibody 2 (10 μg/mL) in 3 μL miniwells containing overlapping a) cyclized (with m-dibromoxylene) and b) linear 12-mer peptides of the β3-loop of FSH-beta; Sequence of binding peptide: (AA68-AA79) Ac-CRVPGAAHHADSLC-resin (SEQ ID NO:5).
The formation of peptide loops via reaction of a linear peptide containing two free sulfhydryl groups with 1,3-bis(bromomethyl)benzene scaffold was also carried out on a polypropylene surface grafted with polyacrylic acid (6% solution containing CuSO4, irradiation using γ-radiation at a dose of 12 kGy) and functionalized with amino groups via coupling with t-butyloxycarbonyl-hexamethylene diamine (Boc-HMDA) using dicyclohexylcarbodiimide (DCC) with N-hydroxybenzotriazole (HOBt) and subsequent deprotection of the Boc-groups using trifluoroacetic acid (TFA). Standard Fmoc peptide chemistry was used to synthesize a set of overlapping linear peptides of 14 amino acid long peptides corresponding to the β3-loop of FSH in separate microwells of 3 μL each using our previously developed minicard format. Each peptide was synthesized with a Cys-residue in position 1, followed by the overlapping sequences of the FSH β3-loop (2-13, 3-14, 4-15, etc.) followed by another Cys-residue in the final position. […]
Background: ELISA stands for enzyme-linked immunosorbent assay.

For assay [1], the target named is mAb 3468 (anti-beta-CG monoclonal antibody). The experiment in a line: Binding of beta-CG mimics (T4 double-loop constructs) to monoclonal antibody 3468 (Kd). From the text: For the inhibition of the specific interaction with hCG and its receptor there is a need for compounds which structurally mimic the hormone. […] It is, therefore, likely that binding of beta-CG to the receptor also involves a discontinuous binding on the hormone. Provided is the design and synthesis of small peptide-based beta-CG mimics that strongly bind to monoclonal antibody 3468. We used the synthetic strategy for structural fixation of linear peptides as outline above.
The beta-CG mimics are advantageously used for the production of antisera that react specifically with hCG.

Assay [2] concerns the target mAb 2 (anti-FSHβ monoclonal antibody). The assay can be described thus: Binding of looped peptide mimics of FSH-β to anti-FSH-β monoclonal antibody mAb 2 (Kd). The source says: We used the synthetic strategy for structural fixation of linear peptides as outlined above. We tested the capacity of these small peptide-based beta-FSH mimics to bind to a number of different monoclonal antibodies specific for beta-FSH.

The target in assay [3] is mAb 1 (monoclonal antibody specific for beta-FSH). The assay can be described thus: Binding of beta-FSH mimics (T4 double-loop constructs) to beta-FSH-specific monoclonal antibody mAb 1 (Kd). From the text: For the inhibition of the specific interaction with beta-FSH and its receptor, there is a need for structural mimics of the hormone. Although there is no crystallographic structure describing the interaction of beta-FSH with its receptor, it is very likely that this binding site is discontinuous in nature. We designed and synthesized a number of double-loop peptide construct on a tetrabromo-(T4)scaffold that could be used as beta-FSH mimics. We used the synthetic strategy for structural fixation of linear peptides as outlined above. We tested the capacity of these small peptide-based beta-FSH mimics to bind to a number of different monoclonal antibodies specific for beta-FSH. […] Furthermore, the beta-FSH mimics can be used successfully for the production of antisera that react specifically with beta-FSH.

“Ac-CRVPGAAHHADSLC-resin (linker 1-14 via mXylylene (inferred); also: C-terminus resin-bound) [68-79]”: the “binding to anti-FSH-β mAb 2 in sandwich ELISA (in words)” value in the assay with anti-FSH-β mAb 2 was “binds strongly”.
As to “c-T2-[Ac-CRVPGAAHHADSLC-NH2] (linker 1-14 via T2 (inferred)) [compound 1]”, the Kd (as a rule, the equilibrium constant for the complex coming apart) in assay [1] is 15 µM; in assay [2], 2.5 µM; in assay [3] it was 0.27 µM.
